Assay results published in the CheMixHub viscosity set.
Several values for one entry are separate records, joined by “and”; a condition that tells them apart may be missing. Equal entries are not always repeated.

Experiment: xn = mol fraction of the nth substance listed

O=C(CO)[C@@H](O)[C@H](O)[C@H](O)CO + O
Details | viscosity
293.15 K, 101 kPa, x1 = 0.011 | 1.18 mPa·s and 1.18 mPa·s
293.15 K, 101 kPa, x1 = 0.0244 | 1.84 mPa·s
293.15 K, 101 kPa, x1 = 0.0411 | 2.73 mPa·s
293.15 K, 101 kPa, x1 = 0.0625 | 5.02 mPa·s
293.15 K, 101 kPa, x1 = 0.0909 | 10.48 mPa·s and 11 mPa·s
293.15 K, 101 kPa, x1 = 0.13 | 31.43 mPa·s and 32 mPa·s
298.15 K, 101 kPa, x1 = 0.0005 | 0.934 mPa·s and 0.934 mPa·s
298.15 K, 101 kPa, x1 = 0.0007 | 0.9442 mPa·s and 0.9442 mPa·s
298.15 K, 101 kPa, x1 = 0.0009 | 0.9494 mPa·s and 0.9494 mPa·s
298.15 K, 101 kPa, x1 = 0.0018 | 0.9838 mPa·s and 0.9838 mPa·s
298.15 K, 101 kPa, x1 = 0.002 | 0.9772 mPa·s and 0.9772 mPa·s
298.15 K, 101 kPa, x1 = 0.00201 | 0.944 mPa·s
298.15 K, 101 kPa, x1 = 0.004 | 1.063 mPa·s
298.15 K, 101 kPa, x1 = 0.00623 | 1.094 mPa·s
298.15 K, 101 kPa, x1 = 0.011 | 1.02 mPa·s and 1 mPa·s
298.15 K, 101 kPa, x1 = 0.0244 | 1.59 mPa·s
298.15 K, 101 kPa, x1 = 0.0411 | 2.15 mPa·s
298.15 K, 101 kPa, x1 = 0.0625 | 4.17 mPa·s
298.15 K, 101 kPa, x1 = 0.0909 | 8 mPa·s and 8 mPa·s
298.15 K, 101 kPa, x1 = 0.13 | 24.3 mPa·s and 25 mPa·s
298.15 K, 101.3 kPa, x1 = 0.002 | 0.93 mPa·s
298.15 K, 101.3 kPa, x1 = 0.00359 | 0.969 mPa·s
298.15 K, 101.3 kPa, x1 = 0.007154 | 1.055 mPa·s
298.15 K, 101.3 kPa, x1 = 0.01069 | 1.15 mPa·s
298.15 K, 101.3 kPa, x1 = 0.01421 | 1.252 mPa·s
298.15 K, 101.3 kPa, x1 = 0.0177 | 1.362 mPa·s
298.15 K, 101.3 kPa, x1 = 0.02116 | 1.483 mPa·s
303.15 K, 100 kPa, x1 = 0.0009 | 0.8331 mPa·s
303.15 K, 100 kPa, x1 = 0.0027 | 0.8672 mPa·s
303.15 K, 100 kPa, x1 = 0.0045 | 0.9015 mPa·s
303.15 K, 100 kPa, x1 = 0.0063 | 0.9349 mPa·s
303.15 K, 101.3 kPa, x1 = 0.002 | 0.834 mPa·s
308.15 K, 101 kPa, x1 = 0.00201 | 0.7816 mPa·s
308.15 K, 101 kPa, x1 = 0.004 | 0.8663 mPa·s
308.15 K, 101 kPa, x1 = 0.00623 | 0.8883 mPa·s
308.15 K, 101 kPa, x1 = 0.007265 | 0.863 mPa·s
308.15 K, 101 kPa, x1 = 0.01082 | 0.928 mPa·s
308.15 K, 101 kPa, x1 = 0.011 | 0.93 mPa·s and 0.95 mPa·s
308.15 K, 101 kPa, x1 = 0.01435 | 1.01 mPa·s
308.15 K, 101 kPa, x1 = 0.02129 | 1.189 mPa·s
308.15 K, 101 kPa, x1 = 0.0244 | 1.27 mPa·s
308.15 K, 101 kPa, x1 = 0.02481 | 1.305 mPa·s
308.15 K, 101 kPa, x1 = 0.02821 | 1.394 mPa·s
308.15 K, 101 kPa, x1 = 0.04021 | 1.833 mPa·s
308.15 K, 101 kPa, x1 = 0.0411 | 1.96 mPa·s
308.15 K, 101 kPa, x1 = 0.0435 | 1.998 mPa·s
308.15 K, 101 kPa, x1 = 0.05099 | 2.372 mPa·s
308.15 K, 101 kPa, x1 = 0.0625 | 3.08 mPa·s
308.15 K, 101 kPa, x1 = 0.0909 | 5.99 mPa·s and 6.05 mPa·s
308.15 K, 101 kPa, x1 = 0.13 | 14.76 mPa·s and 14 mPa·s
308.15 K, 101.3 kPa, x1 = 0.002 | 0.753 mPa·s
313.15 K, 101 kPa, x1 = 0.011 | 0.77 mPa·s
313.15 K, 101 kPa, x1 = 0.0244 | 1.12 mPa·s
313.15 K, 101 kPa, x1 = 0.0411 | 1.52 mPa·s
313.15 K, 101 kPa, x1 = 0.0625 | 2.83 mPa·s
313.15 K, 101 kPa, x1 = 0.0909 | 4.51 mPa·s and 4.6 mPa·s
313.15 K, 101 kPa, x1 = 0.13 | 11.83 mPa·s and 11.8 mPa·s
313.15 K, 101.3 kPa, x1 = 0.002 | 0.685 mPa·s
318.15 K, 101 kPa, x1 = 0.007256 | 0.696 mPa·s
318.15 K, 101 kPa, x1 = 0.01084 | 0.758 mPa·s
318.15 K, 101 kPa, x1 = 0.02144 | 0.946 mPa·s
318.15 K, 101 kPa, x1 = 0.0244 | 0.99 mPa·s
318.15 K, 101 kPa, x1 = 0.02474 | 1.021 mPa·s
318.15 K, 101 kPa, x1 = 0.03978 | 1.469 mPa·s
318.15 K, 101 kPa, x1 = 0.0411 | 1.24 mPa·s
318.15 K, 101 kPa, x1 = 0.05983 | 2.055 mPa·s
318.15 K, 101 kPa, x1 = 0.0625 | 2.3 mPa·s
318.15 K, 101 kPa, x1 = 0.0909 | 3.65 mPa·s
318.15 K, 101 kPa, x1 = 0.13 | 9.57 mPa·s and 8 mPa·s
318.15 K, 101.3 kPa, x1 = 0.002 | 0.625 mPa·s
323.15 K, 101 kPa, x1 = 0.011 | 0.69 mPa·s
323.15 K, 101 kPa, x1 = 0.0244 | 0.92 mPa·s
323.15 K, 101 kPa, x1 = 0.0411 | 1.29 mPa·s
323.15 K, 101 kPa, x1 = 0.0625 | 2.04 mPa·s
323.15 K, 101 kPa, x1 = 0.0909 | 3.4 mPa·s
323.15 K, 101 kPa, x1 = 0.13 | 7.81 mPa·s and 7.5 mPa·s

ClC=C(Cl)Cl + COCCO
viscosity [mPa·s], 101.33 kPa
Details | x1 = 0.1175 | x1 = 0.2132 | x1 = 0.3211 | x1 = 0.4746 | x1 = 0.5328 | x1 = 0.6149 | x1 = 0.7063 | x1 = 0.8042 | x1 = 0.9056
303.15 K | 1.317 | 1.181 | 1.041 | 0.86 | 0.804 | 0.731 | 0.659 | 0.597 | 0.546
313.15 K | 1.074 | 0.981 | 0.88 | 0.746 | 0.703 | 0.648 | 0.591 | 0.543 | 0.504
